One may read the EC50 as the midpoint of the concentration-response curve. High values mean a need for much substance, low ones an effect from little substance.

Sequence of cellular IDO1 in HeLa cells (P14902 whole entry): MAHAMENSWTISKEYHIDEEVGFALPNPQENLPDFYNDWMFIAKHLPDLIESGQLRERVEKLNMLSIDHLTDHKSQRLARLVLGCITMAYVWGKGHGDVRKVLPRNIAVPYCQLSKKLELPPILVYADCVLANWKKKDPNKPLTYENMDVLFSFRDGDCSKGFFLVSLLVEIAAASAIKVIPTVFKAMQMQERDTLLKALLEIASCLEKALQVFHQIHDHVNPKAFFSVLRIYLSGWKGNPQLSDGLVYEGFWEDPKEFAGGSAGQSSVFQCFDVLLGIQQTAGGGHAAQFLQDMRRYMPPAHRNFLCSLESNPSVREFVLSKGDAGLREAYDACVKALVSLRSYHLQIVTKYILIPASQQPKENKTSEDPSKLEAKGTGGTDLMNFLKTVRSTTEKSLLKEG

For this experiment, the target named is cellular IDO1 in HeLa cells (Homo sapiens (Human), UniProt P14902). Description: HeLa Cell-Based IDO1 Kyn (Kynurenine) Production Assay. The conditions noted are these: IFN-γ induced IDO1, 48 hours incubation, Kyn absorbance at 480 nm. Here is the method: HeLa Cell-Based IDO1 Kyn (Kynurenine) Production Assay:
The inhibitory activity of IDO1 inhibitors is determined by using a colorimetric reaction to measure Kyn generated from L-Trp (L-Tryptophon) oxidation by cellular IDO1 in HeLa cells after induction of IDO1 expression by IFN-γ.
Hela cells were obtained from the American Type Culture Collection and recovered in 10% FBS-containing phenol red-free DMEM medium. Cells were plated onto a 96-well plate (100 μl/well) at 8000 cells per well and kept at 37° C. in a humidified incubator supplied with 5% CO2. 4 hours later, Human recombinant IFN-γ (8901SC, CST) was added to cells (final concentration 100 ng/mL) to stimulate endogenous IDOL. Compounds at different concentrations diluted in dimethylsulfoxide (DMSO) were added simultaneously with IFN-γ and 0.4 mM L-Trp. Cells were kept at 37° C. in a humidified incubator supplied with 5% CO2. After 48 hours of incubation, 100 μl supernatant from each well was removed to a new plate. The protein in the medium was precipitated with the addition of 8 μl 6N trichloroacetic acid. The plate was incubated at 60° C. for 30 minutes and then centrifugation at 2500 rpm for 10 minutes to remove sediments. 80 μl supernatants were carefully removed to a new clean plate and added with an equal volume of 2% 4-(Dimethylamino)benzaldehyde (D2004, sigma) dissolved in glacial acetic acid. The absorbance at 480 nm wavelength derived from Kyn was measured using a PHERAstar FS plate reader (BMG LABTECH). The IC5C for each compound was derived from fitting the dose-response data to the four-parameter logistic model by using XLfit software (IDBS).
The molecule `Fc1ccc2nccc(C3CCC(c4nc5cc(Cl)c(F)cc5[nH]4)CC3)c2c1` (single isomer, unassigned) [Example C1a, 4-(4-(5-chloro-6-fluoro-1H-benzo[d]imidazol-2-yl)cyclohexyl)-6-fluoroquinoline] registered an EC50 greater than 10000 nM. Next, `Fc1ccc2nccc(C3CCC(c4nc5cc(Cl)c(F)cc5[nH]4)CC3)c2c1` (single isomer, unassigned) [Example C1b, 4-(4-(5-chloro-6-fluoro-1H-benzo[d]imidazol-2-yl)cyclohexyl)-6-fluoroquinoline]: 24 nM; `Cc1noc(-c2ccc3nc([C@@H](C)[C@H]4CC[C@@H](c5ccnc6ccc(F)cc65)CC4)[nH]c3c2)n1` [B149]: 0.96 nM. Next, `CC(c1nc2c(ccc3ncccc32)[nH]1)[C@H]1CC[C@@H](c2ccnc3ccc(F)cc32)CC1` (some centres unmarked) [B150]: 10.9 nM; `C[C@H](c1nc2cc(F)c(-c3cccnc3)cc2[nH]1)[C@H]1CC[C@@H](c2ccnc3ccc(F)cc32)CC1` [B152]: 62.9 nM; `C[C@@H](c1nc2cc(-c3ccccc3)c(F)cc2[nH]1)[C@H]1CC[C@@H](c2ccnc3ccc(F)cc32)CC1` [B156]: 3.1 nM.

In turn, `C[C@@H](c1nc2cc(C(=O)NC3CC3)c(F)cc2[nH]1)[C@H]1CC[C@@H](c2ccnc3ccc(F)cc32)CC1` [B158] displayed an EC50 of 6.9 nM. To `CCOC(=O)c1ccc2[nH]c(C(C)[C@H]3CC[C@@H](c4ccnc5ccc(F)cc54)CC3)nc2c1` (some centres unmarked) [B161] belongs 1.6 nM; to `CC(C)OC(=O)c1ccc2nc(C(C)[C@H]3CC[C@@H](c4ccnc5ccc(F)cc54)CC3)[nH]c2c1` (some centres unmarked) [B168], 4.86 nM; to `CC(c1nc2c(ccc3ccccc32)[nH]1)[C@H]1CC[C@@H](c2ccnc3ccc(F)cc32)CC1` (some centres unmarked) [B175], 1.7 nM. To `CC(C)OC(=O)c1ccc2nc([C@H](C)[C@H]3CC[C@@H](c4ccnc5ccc(F)cc54)CC3)[nH]c2c1` [B176] belongs 2.9 nM; to `COC(=O)c1cc(C)c2[nH]c(C(C)C3CCC(c4ccnc5ccc(F)cc45)CC3)nc2c1` (centres unmarked) [B177], 6.9 nM.

As to `CC(c1nc2cc(-c3ccccc3)c(F)cc2[nH]1)C1CCC(c2ccnc3ccc(F)cc23)CC1` (centres unmarked) [B181], the response was half-maximal at 2.7 nM (EC50). To `Cc1cc(C(=O)NC2CCC2)cc2nc([C@H](C)[C@H]3CC[C@@H](c4ccnc5ccc(F)cc54)CC3)[nH]c12` [B187] belongs 17.1 nM; to `Cc1cc(C(=O)NC2CCC2)cc2nc([C@@H](C)[C@H]3CC[C@@H](c4ccnc5ccc(F)cc54)CC3)[nH]c12` [B188], 788 nM. To `COC(=O)c1ccc2nc(C(C)[C@H]3CC[C@@H](c4ccnc5ccc(F)cc54)CC3)[nH]c2c1F` (some centres unmarked) [B191] belongs 1.14 nM; to `CC(c1nc2cc(C(=O)NC3CC3)c(F)c(F)c2[nH]1)[C@H]1CC[C@@H](c2ccnc3ccc(F)cc32)CC1` (some centres unmarked) [B192], 8.97 nM; to `COC(=O)c1cccc2nc([C@@H](C)[C@H]3CC[C@@H](c4ccnc5ccc(F)cc54)CC3)[nH]c12` [B208], greater than 1000 nM. Next, `COC(=O)c1cc2nc(C(C)[C@H]3CC[C@@H](c4ccnc5ccc(F)cc54)CC3)[nH]c2c(F)c1F` (some centres unmarked) [B213]: 1.8 nM. With `CC(c1nc2ccc(C(=O)NC3COC3)cc2[nH]1)[C@H]1CC[C@@H](c2ccnc3ccc(F)cc32)CC1` (some centres unmarked) [B214], the EC50 was 84 nM. To `C[C@@H](c1nc2cc(-c3ccccc3)c(F)cc2[nH]1)[C@H]1CC[C@@H](c2ccnc3ccc(F)cc32)CC1` [B218] belongs 1.8 nM; to `C[C@H](c1nc2cc(-c3ccccc3)c(F)cc2[nH]1)[C@H]1CC[C@@H](c2ccnc3ccc(F)cc32)CC1` [B219], 13.7 nM; to `Fc1ccc2nccc([C@H]3CC[C@H](Cc4nc5cc(C(F)(F)F)ccc5[nH]4)CC3)c2c1` [Example A3a, 6-fluoro-4-((1s,4s)-4-((5-(trifluoromethyl)-1H-benzo[d]imidazol-2-yl)methyl)cyclohexyl)quinoline], 72 nM.

The record behind these values is US11472788B2, “Benzoimidazoles as selective inhibitors of indoleamine 2,3-dioxygenases” (BEIGENE, LTD., priority 2017, dated 2022).
